This passage reports antibacterial activity and MIC results from patent US4169941A, “Derivatives of XK-88-5 and process for the production thereof” (Abbott Laboratories, priority 1976, dated 1979).

In brackets after ≈: the same amount, converted by molar mass. Read-outs that look alike come from different tables or passages of the source.

Assay [1] relates to various Gram-positive and Gram-negative bacteria. Put plainly: antibacterial activity (general statement). As to conditions: in words. It is filed as cell-based. An excerpt:
(§1) The following Table 1 illustrates minimum inhibitory concentrations (MIC) of 2"-N-formyl-XK-88-5 against various Gram-positive and Gram-negative bacteria determined by agar dilution method (pH 8.0).

Assay [2] relates to Staphylococcus aureus Ky 4279. The assay is described as follows: MIC, agar dilution method (pH 8.0). It is filed as cell-based. As to conditions: KY4279, read-out: minimum inhibitory concentration (MIC).
Text: as §1

Another assay concerns Vibrio percolans KY 4174. The assay is described as follows: MIC, agar dilution method (pH 8.0). As to conditions: Comamonas terrigena, KY4174, read-out: minimum inhibitory concentration (MIC). The class given is cell-based.
Text: as §1
In general terms: In agar dilution, organisms are placed on agar that contains the substance at set levels.

The subject of assay [3] is Pseudomonas alkaligenes KY 4656. The assay is described as follows: MIC, agar dilution method (pH 8.0). The class given is cell-based. As to conditions: KY4656, read-out: minimum inhibitory concentration (MIC).
Text: as §1

The subject of a further assay is Erwinia aroideae KY 3241. Put plainly: MIC, agar dilution method (pH 8.0). As to conditions: Pectobacterium carotovorum, KY3241, read-out: minimum inhibitory concentration (MIC). The class given is cell-based.
Text: as §1

In the next assay the test system is Proteus vulgaris KY 4277. The assay is described as follows: MIC, agar dilution method (pH 8.0). It is filed as cell-based. As to conditions: KY4277, read-out: minimum inhibitory concentration (MIC).
Text: as §1

In the next assay the test system is Shigella sonnei KY 4281. Put plainly: MIC, agar dilution method (pH 8.0). As to conditions: KY4281, read-out: minimum inhibitory concentration (MIC). It is filed as cell-based.
Text: as §1

In assay [4] the test system is Bacillus subtilis KY 4273. The assay is described as follows: MIC, agar dilution method (pH 8.0). As to conditions: KY4273, read-out: minimum inhibitory concentration (MIC). The class given is cell-based.
Text: as §1

In a further assay the test system is Escherichia coli KY 4271. The assay is described as follows: MIC, agar dilution method (pH 8.0). The class given is cell-based. As to conditions: KY4271, read-out: minimum inhibitory concentration (MIC).
Text: as §1

Assay [5] has as its system Klebsiella pheumoniae KY 4275. Put plainly: MIC, agar dilution method (pH 8.0). It is filed as cell-based. As to conditions: KY4275, read-out: minimum inhibitory concentration (MIC).
Text: as §1

The test system of assay [6] is Salmonella typhosa KY 4278. Put plainly: MIC, agar dilution method (pH 8.0). As to conditions: Salmonella enterica, pH 8, read-out: minimum inhibitory concentration (MIC). It is filed as cell-based.
Text: as §1

Assay [7] concerns various Gram-positive and Gram-negative bacteria. As to conditions: in words; parent antibiotic, background; cited from earlier work.

Take `COC1COC(OC2C(N)CC(N)C(OC3OC(CN)CC(O)C3N)C2O)C(NC=O)C1N` (stereo not drawn) [2"-N-formyl-XK-88-5]: in [1], the antibacterial activity result is reported as “strong antibacterial activity”. Further, the MIC worked out at 0.32 µg/mL (≈ 0.669 µM) in [2]; 10 µg/mL (≈ 20.9 µM) with Vibrio percolans KY 4174; 2.5 µg/mL (≈ 5.22 µM) in assay [3]; 1.25 µg/mL (≈ 2.61 µM) with Erwinia aroideae KY 3241; 2.5 µg/mL (≈ 5.22 µM) in the assay with Proteus vulgaris KY 4277; 2.5 µg/mL (≈ 5.22 µM) in the assay with Shigella sonnei KY 4281. Further, the MIC in assay [4] turned out to be 0.32 µg/mL (≈ 0.669 µM); with Escherichia coli KY 4271, 2.5 µg/mL (≈ 5.22 µM); in assay [5], 0.64 µg/mL (≈ 1.34 µM); in assay [6], 2.5 µg/mL (≈ 5.22 µM).
In the case of `COC1COC(OC2C(N)CC(N)C(OC3OC(CN)CC(O)C3N)C2O)C(N)C1N` (stereo not drawn) [XK-88-5], in [7], the antibacterial activity entry was “high antibacterial activity”.
